How the values were obtained:
[1] = target: T1, recombinant human RPE65 and LRAT (Homo sapiens, UniProt Q16518); test: Human in vitro isomerase inhibition reaction; assay type: biochemical; settings: human in vitro isomerase assay, FIG. 1 and FIG. 2
T1 construct: made in house; host or cells: HEK293 cell clone (homogenate) for RPE65 and LRAT; E. coli TOP10 for CRALBP
T1 sequence (Q16518 2-533 limits assumed): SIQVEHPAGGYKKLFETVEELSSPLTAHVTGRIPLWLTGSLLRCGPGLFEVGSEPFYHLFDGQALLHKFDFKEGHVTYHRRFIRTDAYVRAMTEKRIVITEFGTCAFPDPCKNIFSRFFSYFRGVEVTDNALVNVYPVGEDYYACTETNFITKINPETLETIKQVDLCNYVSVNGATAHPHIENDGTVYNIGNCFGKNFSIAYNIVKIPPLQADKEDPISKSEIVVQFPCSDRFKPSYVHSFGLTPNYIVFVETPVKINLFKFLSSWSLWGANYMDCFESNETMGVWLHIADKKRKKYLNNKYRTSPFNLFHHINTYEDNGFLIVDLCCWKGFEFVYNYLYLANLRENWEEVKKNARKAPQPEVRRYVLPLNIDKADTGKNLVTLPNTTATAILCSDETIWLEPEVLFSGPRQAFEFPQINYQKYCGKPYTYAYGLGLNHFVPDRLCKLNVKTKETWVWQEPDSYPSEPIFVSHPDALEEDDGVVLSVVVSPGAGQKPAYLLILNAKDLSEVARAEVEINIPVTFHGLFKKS
Description: A homogenate of HEK293 cell clone expressing recombinant human RPE65 and LRAT were the source of the visual enzymes, and exogenous all-trans-retinol (about 20 μM) was used as the substrate. […] The 200 μL Bis-Tris Phosphate buffer (10 mM, pH 7.2) based reaction mixture also contains 0.5% BSA, and 1 mM NaPPi. In this assay, the reaction was carried out at 37° C. in duplicates for one hour and was terminated by addition of 300 μL methanol. The amount of reaction product, 11-cis-retinol, was measured by HPLC analysis following Heptane extraction of the reaction mixture.

[2] = target: T2, isomerase (Mus musculus, UniProt Q91ZQ5); test: In vivo murine isomerase assay; parameters: species or system mice; settings: for inhibition in vivo at 1 mg/kg: mouse, po, 4 h, read-out: % Inibition 1 mg/kg, 4 h
T2 construct: The recovery of 11-cis-retinal after bleaching can be used to estimate the activity of isomerase in vivo; from tissue; host or cells: eyes of living mice (CD-1; Balb/c also named)
T2 sequence (Q91ZQ5 1-533): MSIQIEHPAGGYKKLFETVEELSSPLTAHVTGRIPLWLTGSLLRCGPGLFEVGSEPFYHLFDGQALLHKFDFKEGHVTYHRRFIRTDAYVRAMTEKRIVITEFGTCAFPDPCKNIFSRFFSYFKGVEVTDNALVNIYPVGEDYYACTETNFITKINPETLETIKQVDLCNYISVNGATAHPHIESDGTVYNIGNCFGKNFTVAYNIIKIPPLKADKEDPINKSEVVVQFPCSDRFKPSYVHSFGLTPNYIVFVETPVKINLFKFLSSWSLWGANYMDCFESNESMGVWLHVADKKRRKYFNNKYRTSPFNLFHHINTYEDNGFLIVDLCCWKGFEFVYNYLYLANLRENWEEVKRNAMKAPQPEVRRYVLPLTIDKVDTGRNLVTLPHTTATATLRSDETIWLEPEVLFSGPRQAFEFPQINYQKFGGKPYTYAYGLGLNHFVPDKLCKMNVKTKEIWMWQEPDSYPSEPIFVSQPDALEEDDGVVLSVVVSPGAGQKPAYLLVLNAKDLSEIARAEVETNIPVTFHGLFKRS
Description: The capability of compounds described herein to inhibit isomerase was determined by an in vivo murine isomerase assay. Brief exposure of the eye to intense light (“photobleaching” of the visual pigment or simply “bleaching”) is known to photo-isomerize almost all 11-cis-retinal in the retina. The recovery of 11-cis-retinal after bleaching can be used to estimate the activity of isomerase in vivo. Delayed recovery, as represented by lower 11-cis-retinal oxime levels, indicates inhibition of isomerization reaction. Procedures were performed essentially as described by Golczak et al., Proc. Natl. Acad. Sci. […] Mice were gavaged with the compounds described in the present disclosure. After about 2-24 hours in the dark, the mice were exposed to photobleaching of about 5,000 lux of white light for 10 minutes. The mice were allowed to recover for about 2 hours in the dark. The animals were then sacrificed by carbon dioxide inhalation. Retinoids were extracted from the eye and the regeneration of 11-cis-retinal was assessed at various time intervals. […] After the mice were sacrificed, the eyes were immediately removed and placed in liquid nitrogen for storage. The eyes were placed in about 500 μL of bis-tris propane buffer (10 mM, pH˜7.3) and about 20 μl of 0.8M hydroxylamine (pH˜7.3). The eyes were cut up into small pieces with small iris scissors and then thoroughly homogenized at 30000 rpm with a mechanical homogenizer (Polytron PT 1300 D) in the tube until no visible tissue remains. About 500 μL of methanol and about 500 μL of heptane was added to each tube. The tubes were attached to a vortexer so that the contents are mixed thoroughly for about 15 minutes in room temperature. […] The samples were analyzed on an Agilent 1100 HPLC system with normal phase column: SILICA (Beckman Coutlier, dp 5 μm, […]). […] Loading volume for each sample was about 100 μl; detection wavelength is 360 nm. The area under the curve for 11-cis-retinal oxime was calculated by Agilent Chemstation software and recorded manually. Data processing was performed using Prizm software. Positive control mice (no compound administered) were sacrificed fully dark-adapted and the eye retinoids analyzed. Light (bleached) control mice (no compound administered) were sacrificed and retinoids isolated and analyzed immediately after light treatment. A time course study was also performed to determine the isomerase inhibitory activity of compounds of the present disclosure. Female or male mice (such as Balb/c mice) (at least 4/group) received 0 to about 5 mg of compounds (in water) per kg bodyweight orally, by gavage. The animals were then “photo-bleached” (about 5000 Lux white light for about 10 minutes) at about 2, 4, 8, 16 and 24 hours after dosing, and returned to darkness to allow recovery of the 11-cis-retinal content of the eyes. Mice were sacrificed about 2 hours after bleaching, eyes were enucleated, and retinoid content was analyzed by HPLC. A dose response in vivo isomerase inhibition study is performed with compounds of the present disclosure. Male or female mice (such as Balb/c mice)(at least about 8/group) are dosed orally with about 0.01 to 25 mg/kg of the compounds of HCl salts of the compounds in sterile water as solution, and photobleached about 4 hours after dosing. Recovery and retinoid analysis is performed as described above. Dark control mice are vehicle-only treated, sacrificed fully dark adapted without light treatment, and analyzed. […]

inhibition of 11-cis-retinol production [1] | inhibition in vivo at 1 mg/kg [2] | % Inibition 1 mg/kg, 24 h ([2]; 1 mg/kg oral, 24 h after dosing, inhibition of 11-cis-retinal (oxime) recovery after photobleach) | SMILES
dose-dependent inhibition | -11.7 ± 4.36% |  | NCCC(O)c1cccc(NS(=O)(=O)C2CCCCC2)c1 (centres unmarked) [Example 5, N-(3-(3-amino-1-hydroxypropyl)phenyl)cyclohexanesulfonamide]
dose-dependent inhibition | -11.9 ± 18.2% | 48.70 ± 2.71% | NCCCc1cccc(NS(=O)(=O)C2CCCCC2)c1 [Example 6, N-(3-(3-aminopropyl)phenyl)cyclohexanesulfonamide]

Reference: patent US9193669B2, “Compounds for treating ophthalmic diseases and disorders” (Acucela Inc., priority 2008, dated 2015)
